# Patent US20150173371A1 (Dow AgroSciences LLC, priority 2013, published 2015)
# “And” between values parts separate entries of the source, which are not always exact repeats. Identical values can stand only once. Like-named read-outs stand apart in the source and are kept apart here.
# Legend:
# [1] = test system: Abutilon theophrasti (velvetleaf, ABUTH); assay: Greenhouse trial, % visual weed control; assay type: in vivo; conditions: 14DAA
# Protocol: (§1) Greenhouse trials were conducted under controlled environment greenhouse conditions, with plants grown in pots with Metromix soil and bottom watered. Treatments were applied with 3 replicates per treatment, using a track sprayer with 2 flat fan nozzles at 40 pounds per square inch (PSI). Water was used as the diluent at 140 liters per hectare (L/ha), with weeds being 2-4 leaf stage and approximately 3 inches in height at treatment.
# [2] = test system: Ambrosia artemisiifolia (common ragweed, AMBEL); assay: Greenhouse trial, % visual weed control; assay type: in vivo; conditions: 14DAA, 100 g ae/ha alone
# Protocol: as §1
# [3] = test system: Chenopodium album (common lambsquarter, CHEAL); assay: Greenhouse trial, % visual weed control; assay type: in vivo; conditions: 14DAA
# Protocol: as §1
# [4] = test system: Elymus repens (quackgrass, AGRRE); assay: Greenhouse trial, % visual weed control; assay type: in vivo; conditions: 14DAA, 200 g ae/ha alone
# Protocol: as §1
# [5] = test system: Conyza bonariensis (hairy fleabane, ERIBO); conditions: field trial
# Protocol: (§2) Field trials were conducted under normal field conditions in multiple states in the United States, including but not limited to Alabama, Mississipi, South Carolina and Tennessee; and in Brazil, including but not limited to the states of Goias, Mato Grosso, Parana, Rio Grande do Sul, and Sao Paulo. Trials were established as RCB (randomized complete block) design, with 3-4 replicates per treatment, and plot sizes varying from 2-3 meters (m) wide by 4-8 m long. Treatments were applied with small plot backpack sprayers, using pressurized carbon dioxide (CO2) as propellant. Pressure varied from 22-40 PSI, with spray tips typically of a Flat Fan type applying water diluent at 150 L/ha. Boom sizes varied from 2-3 m in width. Treatments were applied to soybean, cotton or fallow crop land. Weed sizes varied, but all treatments were applied as post-emergence treatments to weeds from 2 leaf to 2 tiller growth stages varying from 2-15 inches (in) in height. No additional adjuvant was mixed with the treatments applied in the field
# (§3) The treated plots and control plots were rated blind at various intervals after application.
# (§4) Colby's equation was used to determine the herbicidal effects expected from the mixtures (Colby, S. R. Calculation of the synergistic and antagonistic response of herbicide combinations. Weeds 1967 15, 20-22). A t-test (alpha=0.05) between Colby predictions and observed combinations was used to test for significant differences indicating synergy or antagonism.
# (§5) The following equation was used to calculate the expected activity of mixtures containing two active ingredients, A and B:
# (§6) Expected=A+B−(A×B/100) • A=observed efficacy of active ingredient A at the same concentration as used in the mixture; • B=observed efficacy of active ingredient B at the same concentration as used in the mixture.
# [6] = test system: Conyza canadensis (horseweed, ERICA); conditions: field trial
# Protocol: as §2, §3, §4, §5, §6
# [7] = test system: Ipomoea quamoclit (cypress vine morningglory, IPOQU); conditions: 7DAA, field trial, 1065 g ae/ha alone
# Protocol: as §2, §3, §4, §5, §6
# [8] = test system: Amaranthus palmeri (Palmer pigweed, AMAPA); assay: Field trial, % visual weed control; assay type: in vivo
# Description: (§7) Boom sizes varied from 2-3 m in width.
# [9] = test system: Brachiaria decumbens (Surinam grass, BRADC); assay: Field trial, % visual weed control; assay type: in vivo; conditions: 12DAA, 684 g ae/ha alone
# Description: as §7
# [10] = test system: Commelina benghalensis (hairy wandering Jew, COMBE); assay: Field trial, % visual weed control; assay type: in vivo; conditions: 780 g ae/ha alone
# Description: as §7
# [11] = test system: Euphorbia heterophylla (wild poinsettia, EPHHL); assay: Field trial, % visual weed control; assay type: in vivo; conditions: 28DAA, 585 g ae/ha alone
# Description: as §7
# [12] = test system: Euphorbia hirta (garden spurge, EPHHI); assay: Field trial, % visual weed control; assay type: in vivo
# Description: as §7
# [13] = test system: Glycine max (soybean, glyphosate tolerant, GLXMA); assay: Field trial, % visual weed control; assay type: in vivo
# Description: as §7
# [14] = test system: Ipomoea grandifolia (Corda-de-viola, IAQGR); assay: Field trial, % visual weed control; assay type: in vivo; conditions: 17DAA, 780 g ae/ha alone
# Description: as §7
# [15] = test system: Ipomoea species (morningglory, IPOSS); assay: Field trial, % visual weed control; assay type: in vivo; conditions: 8DAA, 800 g ae/ha alone
# Description: as §7
# [16] = test system: Jacquemontia tamnifolia (smallflower morningglory, IAQTA); assay: Field trial, % visual weed control; assay type: in vivo; conditions: 7DAA, 1065 g ae/ha alone
# Description: as §7
# [17] = test system: Raphanus raphanistrim (wild radish, RAPRA); assay: Field trial, % visual weed control; assay type: in vivo; conditions: 6DAA, 780 g ae/ha alone
# Description: as §7
# [18] = test system: Sesbania exaltata (hemp sesbania, SEBEX); assay: Field trial, % visual weed control; assay type: in vivo; conditions: 8DAA, 800 g ae/ha alone
# Description: as §7
# [19] = test system: Spermacoce latifolia (broadleaf buttonweed, BOILF); assay: Field trial, % visual weed control; assay type: in vivo
# Description: as §7
# [20] = test system: Tridax procumbens L (tridax daisy, TRQPR); assay: Field trial, % visual weed control; assay type: in vivo; conditions: 16DAA, 780 g ae/ha alone
# Description: as §7
structure (smiles),measurement,setting,value
"O=C(O)COc1ccc(Cl)cc1Cl [2,4-D-Choline, 2-hydroxy-N,N,N-trimethylethanaminium 2-(2,4-dichlorophenoxyl)acetate]",Mean % Weed Control,[1]; 100 g ae/ha alone,28.3%
same,Mean % Weed Control,[1]; 200 g ae/ha alone,46.7%
same,Mean % Weed Control,[1]; 400 g ae/ha alone,73.3%
same,Mean % Weed Control,[1]; 800 g ae/ha alone,88.3%
same,Mean % Weed Control,[2],25.0%
same,Mean % Weed Control,[3]; 100 g ae/ha alone,5.0%
same,Mean % Weed Control,[3]; 200 g ae/ha alone,61.7%
same,Mean % Weed Control,[3]; 400 g ae/ha alone,75.0%
same,Mean % Weed Control,[4],0.0%
same,Mean % Weed Control,"[5]; 6DAA, 720 g ae/ha alone",5.0%
same,Mean % Weed Control,"[5]; 6DAA, 1080 g ae/ha alone",5.0%
same,Mean % Weed Control,"[5]; 7DAA, 780 g ae/ha alone",5.0% and 12.5%
same,Mean % Weed Control,"[5]; 10DAA, 780 g ae/ha alone",46.3%
same,Mean % Weed Control,"[5]; 20DAA, 780 g ae/ha alone",34.5%
same,Mean % Weed Control,"[5]; 21DAA, 780 g ae/ha alone",38.8%
same,Mean % Weed Control,"[5]; 31DAA, 780 g ae/ha alone",53.8%
same,Mean % Weed Control,"[5]; 36DAA, 780 g ae/ha alone",27.5% and 17.5%
same,Mean % Weed Control,"[6]; 10DAA, 360 g ae/ha alone",11.7%
same,Mean % Weed Control,"[6]; 10DAA, 720 g ae/ha alone",15%
same,Mean % Weed Control,"[6]; 14DAA, 800 g ae/ha alone",58.8%
same,Mean % Weed Control,"[6]; 15DAA, 360 g ae/ha alone",16.7%
same,Mean % Weed Control,"[6]; 15DAA, 720 g ae/ha alone",21.7%
same,Mean % Weed Control,"[6]; 21DAA, 800 g ae/ha alone",66.3%
same,Mean % Weed Control,"[6]; 28DAA, 800 g ae/ha alone",50.0%
same,Mean % Weed Control,"[6]; 31DAA, 360 g ae/ha alone",25%
same,Mean % Weed Control,"[6]; 31DAA, 720 g ae/ha alone",40%
same,Mean % Weed Control,[7],81.3%
same,Mean % Weed Control,"[8]; 7DAA, 800 g ae/ha alone",47.5%
same,Mean % Weed Control,"[8]; 13DAA, 1065 g ae/ha alone",45.0%
same,Mean % Weed Control,"[8]; 21DAA, 1065 g ae/ha alone",38.8%
same,Mean % Weed Control,[9],7.5%
same,Mean % Weed Control,[10]; 12DAA,70.0%
same,Mean % Weed Control,[10]; 15DAA,68.8% and 66.3%
same,Mean % Weed Control,[10]; 18DAA,43.8%
same,Mean % Weed Control,[10]; 27DAA,66.3%
same,Mean % Weed Control,[10]; 28DAA,67.5%
same,Mean % Weed Control,[10]; 35DAA,70.0%
same,Mean % Weed Control,[11],65.0%
same,Mean % Weed Control,"[12]; 7DAA, 780 g ae/ha alone",13.8%
same,Mean % Weed Control,"[12]; 18DAA, 780 g ae/ha alone",36.3%
same,Mean % Weed Control,"[12]; 21DAA, 780 g ae/ha alone",0.0%
same,Mean % Weed Control,"[12]; 24DAA, 480 g ae/ha alone",21.7%
same,Mean % Weed Control,"[13]; 7DAA, 960 g ae/ha alone",50.0%
same,Mean % Weed Control,"[13]; 16DAA, 456 g ae/ha alone",48.8%
same,Mean % Weed Control,"[13]; 28DAA, 480 g ae/ha alone",58.8%
same,Mean % Weed Control,"[13]; 28DAA, 960 g ae/ha alone",67.5%
same,Mean % Weed Control,"[13]; 30DAA, 456 g ae/ha alone",60.0%
same,Mean % Weed Control,[14],98.0%
same,Mean % Weed Control,[15],80.0%
same,Mean % Weed Control,[16],80.0%
same,Mean % Weed Control,[17],80.0%
same,Mean % Weed Control,[18],32.5%
same,Mean % Weed Control,"[19]; 18DAA, 780 g ae/ha alone",37.5%
same,Mean % Weed Control,"[19]; 21DAA, 780 g ae/ha alone",63.8%
same,Mean % Weed Control,"[19]; 24DAA, 480 g ae/ha alone",30.0%
same,Mean % Weed Control,"[19]; 27DAA, 780 g ae/ha alone",67.5%
same,Mean % Weed Control,"[19]; 28DAA, 780 g ae/ha alone",68.8%
same,Mean % Weed Control,[20],12.5%
